System: pre-cultured PBMCs (NSP12-specific T cells)
Test: IFN-γ ELISpot with single 15-mer peptides after 11–13 days in vitro peptide-pool T-cell expansion
Assay type: cell-based, human
Settings: single NSP12 15-mer peptides; for peptide-specific response, donor HH-N12-18, post COVID-19 / peptide-specific response, donor HH-N12-34, post COVID-19 / peptide-specific response, donor HH-N12-35, post COVID-19 / peptide-specific response, donor HH-N12-36, post COVID-19 / peptide-specific response, donor HH-N12-37, post COVID-19: sample post COVID-19; for peptide-specific response, donor HH-N12-18, pre COVID-19 / peptide-specific response, donor HH-N12-34, pre COVID-19 / peptide-specific response, donor HH-N12-35, pre COVID-19 / peptide-specific response, donor HH-N12-36, pre COVID-19 / peptide-specific response, donor HH-N12-37, pre COVID-19: sample pre COVID-19

| Sequence | peptide-specific response, donor HH-N12-18, post COVID-19 | peptide-specific response, donor HH-N12-18, pre COVID-19 | peptide-specific response, donor HH-N12-34, post COVID-19 | peptide-specific response, donor HH-N12-34, pre COVID-19 | peptide-specific response, donor HH-N12-35, post COVID-19 | peptide-specific response, donor HH-N12-35, pre COVID-19 | peptide-specific response, donor HH-N12-36, post COVID-19 | peptide-specific response, donor HH-N12-36, pre COVID-19 | peptide-specific response, donor HH-N12-37, post COVID-19 | peptide-specific response, donor HH-N12-37, pre COVID-19 |
| --- | --- | --- | --- | --- | --- | --- | --- | --- | --- | --- |
| FQEKDEDDNLIDSYF [compound 12] | 0 | 0 | 0 | 0 | 0 | 0 | 0 | 0 | 0 | 0 |
| HVDTDLTKPYIKWDL [compound 52] | 0 | 0 | 0 | 0 | 0 | 0 | 0 | 0 | 0.022 | 0 |
| IDSYFVVKRHTFSNY [compound 14] | 0 | 0 | 0 | 0 | 0 | 0 | 0 | 0 | 0 | 0 |
| IYNLLKDCPAVAKHD [compound 18] | 0 | 0 | 0 | 0 | 0 | 0 | 0 | 0 | 0.023 | 0 |
| KDCPAVAKHDFFKFR [compound 19] | 0 | 0 | 0 | 0 | 0 | 0 | 0 | 0 | 0 | 0 |
| KLFDRYFKYWDQTYH [compound 57] | 0 | 0 | 0 | 0 | 0 | 0 | 0.029 | 0 | 0 | 0 |
| LKYDFTEERLKLFDR [compound 55] | 0 | 0 | 0 | 0 | 0 | 0 | 0 | 0 | 0 | 0 |
| LLKTVQFCDAMRNAG [compound 38] | 0 | 0 | 0 | 0 | 0 | 0 | 0 | 0 | 0 | 0 |
| LTAESHVDTDLTKPY [compound 51] | 0 | 0 | 0 | 0 | 0 | 0 | 0 | 0.05 | 0 | 0 |

From PMC10196118, “Evidence for broad cross-reactivity of the SARS-CoV-2 NSP12-directed CD4^+ T-cell response with pre-primed responses directed against common cold coronaviruses” (Frontiers in Immunology, 2023)
